Data reported in ChEMBL document CHEMBL4808234, “Substituent effects of cyclic naphthalene diimide on G-quadruplex binding and the inhibition of cancer cell growth” (Bioorg Med Chem Lett, 2021).
Active and inactive are the calls of the source. The rule behind the calls is not given here.

Experiments:
[1] = test system: Quadruplex DNA; assay: Binding affinity to TA-core G4 DNA 5'-TAGGGTTAGGGTTAGGGTTAGGG-3' (unknown origin) assessed as change in entropy measured under dilution conditions by isothermal titration calorimetry; type: nucleic-acid assay; settings: Homo sapiens
[2] = test system: Quadruplex DNA; assay: Binding affinity to TA-core G4 DNA 5'-TAGGGTTAGGGTTAGGGTTAGGG-3' (unknown origin) assessed as change in entropy measured under molecular crowding conditions by isothermal titration calorimetry; type: nucleic-acid assay; settings: Homo sapiens
[3] = test system: Quadruplex DNA; assay: Binding affinity at c-myc G4 DNA 5'-TGAGGGTGGGGAGGGTGGGGAA-3' (unknown origin) assessed as circular dichroism changes up to 4.5 uM by spectrophotometric method; type: nucleic-acid assay; settings: Homo sapiens; dose microM <=4.5
[4] = test system: Quadruplex DNA; assay: Binding affinity to TA-core G4 DNA 5'-TAGGGTTAGGGTTAGGGTTAGGG-3' (unknown origin) assessed as change in enthalpy measured under molecular crowding conditions by isothermal titration calorimetry; type: nucleic-acid assay; settings: Homo sapiens
[5] = test system: Quadruplex DNA; assay: Binding affinity to c-myc G4 DNA 5'-TGAGGGTGGGGAGGGTGGGGAA-3' (unknown origin) assessed as change in enthalpy measured under molecular crowding conditions by isothermal titration calorimetry; type: nucleic-acid assay; settings: Homo sapiens
[6] = test system: Quadruplex DNA; assay: Binding affinity to TA-core G4 DNA 5'-TAGGGTTAGGGTTAGGGTTAGGG-3' (unknown origin) assessed as association constant at equilibrium measured under molecular crowding conditions by isothermal titration calorimetry; type: nucleic-acid assay; settings: Homo sapiens
[7] = molecular target: Telomerase reverse transcriptase (Homo sapiens) (UniProt O14746); assay: Inhibition of telomerase in human A549 cell lysate using TA-core (5'-TAGGGTTAGGGTTAGGGTTAGGG-3') and Rev21G (5'-TCT CGT CTF CCC TAA-3') as primer by PCR stop assay; type: subcellular
Telomerase reverse transcriptase (Homo sapiens), sequence (O14746 whole entry): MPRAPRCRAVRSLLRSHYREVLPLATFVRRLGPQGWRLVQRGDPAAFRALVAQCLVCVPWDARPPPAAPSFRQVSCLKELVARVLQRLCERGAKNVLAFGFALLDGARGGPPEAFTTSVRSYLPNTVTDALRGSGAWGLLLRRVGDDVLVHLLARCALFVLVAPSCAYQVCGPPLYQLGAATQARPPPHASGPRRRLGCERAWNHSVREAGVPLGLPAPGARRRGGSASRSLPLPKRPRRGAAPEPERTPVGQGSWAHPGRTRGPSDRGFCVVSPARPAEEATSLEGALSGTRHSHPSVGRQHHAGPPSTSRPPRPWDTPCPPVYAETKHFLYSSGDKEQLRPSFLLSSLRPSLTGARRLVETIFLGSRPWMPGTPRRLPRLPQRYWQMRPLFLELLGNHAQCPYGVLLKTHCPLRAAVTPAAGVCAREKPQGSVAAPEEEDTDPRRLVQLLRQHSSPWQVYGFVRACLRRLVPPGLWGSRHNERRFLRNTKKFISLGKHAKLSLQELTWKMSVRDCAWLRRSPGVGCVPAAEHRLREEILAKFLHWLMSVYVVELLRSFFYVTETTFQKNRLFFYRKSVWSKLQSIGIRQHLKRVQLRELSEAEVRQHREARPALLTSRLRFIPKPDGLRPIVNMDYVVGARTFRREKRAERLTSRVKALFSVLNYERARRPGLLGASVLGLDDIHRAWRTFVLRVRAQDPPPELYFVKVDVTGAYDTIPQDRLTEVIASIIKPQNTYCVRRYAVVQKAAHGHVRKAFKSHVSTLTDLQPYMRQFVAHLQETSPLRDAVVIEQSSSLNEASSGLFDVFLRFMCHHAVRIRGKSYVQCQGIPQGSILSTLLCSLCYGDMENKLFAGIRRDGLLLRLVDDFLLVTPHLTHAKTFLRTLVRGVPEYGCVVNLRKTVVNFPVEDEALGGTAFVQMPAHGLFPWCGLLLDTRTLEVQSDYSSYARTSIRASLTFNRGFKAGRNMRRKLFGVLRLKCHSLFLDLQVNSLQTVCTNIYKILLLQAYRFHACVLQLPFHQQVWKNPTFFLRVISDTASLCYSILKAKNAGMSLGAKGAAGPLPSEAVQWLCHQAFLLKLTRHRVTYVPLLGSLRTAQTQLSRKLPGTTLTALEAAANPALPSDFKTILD

[8] = test system: Quadruplex DNA; assay: Binding affinity to c-myc G4 DNA 5'-TGAGGGTGGGGAGGGTGGGGAA-3' (unknown origin) assessed as Gibbs free energy change measured under dilution conditions by isothermal titration calorimetry; type: nucleic-acid assay; settings: Homo sapiens
[9] = test system: Quadruplex DNA; assay: Binding affinity to TA-core G4 DNA 5'-TAGGGTTAGGGTTAGGGTTAGGG-3' (unknown origin) assessed as Gibbs free energy change measured under dilution conditions by isothermal titration calorimetry; type: nucleic-acid assay; settings: Homo sapiens
[10] = test system: Quadruplex DNA; assay: Binding affinity at TA-core G4 DNA 5'-TAGGGTTAGGGTTAGGGTTAGGG-3' (unknown origin) assessed as circular dichroism changes up to 4.5 uM by spectrophotometric method; type: nucleic-acid assay; settings: Homo sapiens; dose microM <=4.5
[11] = test system: Quadruplex DNA; assay: Binding affinity to TA-core G4 DNA 5'-TAGGGTTAGGGTTAGGGTTAGGG-3' (unknown origin) assessed as change in enthalpy measured under dilution conditions by isothermal titration calorimetry; type: nucleic-acid assay; settings: Homo sapiens
[12] = test system: Quadruplex DNA; assay: Binding affinity to c-myc G4 DNA 5'-TGAGGGTGGGGAGGGTGGGGAA-3' (unknown origin) assessed as change in enthalpy measured under dilution conditions by isothermal titration calorimetry; type: nucleic-acid assay; settings: Homo sapiens
[13] = test system: Quadruplex DNA; assay: Binding affinity to c-myc G4 DNA 5'-TGAGGGTGGGGAGGGTGGGGAA-3' (unknown origin) assessed as association constant at equilibrium measured under dilution conditions by isothermal titration calorimetry; type: nucleic-acid assay; settings: Homo sapiens
[14] = test system: Quadruplex DNA; assay: Binding affinity to TA-core G4 DNA 5'-TAGGGTTAGGGTTAGGGTTAGGG-3' (unknown origin) assessed as association constant at equilibrium measured under dilution conditions by isothermal titration calorimetry; type: nucleic-acid assay; settings: Homo sapiens
[15] = test system: Quadruplex DNA; assay: Binding affinity to c-myc G4 DNA 5'-TGAGGGTGGGGAGGGTGGGGAA-3' (unknown origin) assessed as change in entropy measured under molecular crowding conditions by isothermal titration calorimetry; type: nucleic-acid assay; settings: Homo sapiens
[16] = test system: Quadruplex DNA; assay: Binding affinity to c-myc G4 DNA 5'-TGAGGGTGGGGAGGGTGGGGAA-3' (unknown origin) assessed as association constant at equilibrium measured under molecular crowding conditions by isothermal titration calorimetry; type: nucleic-acid assay; settings: Homo sapiens
[17] = test system: Quadruplex DNA; assay: Binding affinity to TA-core G4 DNA 5'-TAGGGTTAGGGTTAGGGTTAGGG-3' (unknown origin) assessed as Gibbs free energy change measured under molecular crowding conditions by isothermal titration calorimetry; type: nucleic-acid assay; settings: Homo sapiens
[18] = test system: Ca9-22; assay: Growth inhibition of human Ca9-22 cells incubated for 24 hrs by CCK8 assay; type: functional, cell-based
[19] = test system: Quadruplex DNA; assay: Binding affinity at TA-core G4 DNA 5'-TAGGGTTAGGGTTAGGGTTAGGG-3' (unknown origin) assessed as change in melting temperature by circular dichroism spectrophotometric method; type: nucleic-acid assay; settings: Homo sapiens
[20] = test system: Quadruplex DNA; assay: Binding affinity to c-myc G4 DNA 5'-TGAGGGTGGGGAGGGTGGGGAA-3' (unknown origin) assessed as Gibbs free energy change measured under molecular crowding conditions by isothermal titration calorimetry; type: nucleic-acid assay; settings: Homo sapiens
[21] = test system: Quadruplex DNA; assay: Binding affinity to c-myc G4 DNA 5'-TGAGGGTGGGGAGGGTGGGGAA-3' (unknown origin) assessed as change in entropy measured under dilution conditions by isothermal titration calorimetry; type: nucleic-acid assay; settings: Homo sapiens
[22] = test system: Bone marrow cell; assay: Growth inhibition of human Bone marrow at 0.1 uM cell incubated for 24 hrs by CCK8 assay; type: cell-based
[23] = Growth inhibition of human NHEK cells at 0.1 uM incubated for 24 hrs by CCK8 assay; type: tissue-based; settings: read-out: GI
[24] = Growth inhibition of human NHEK cells incubated for 24 hrs by CCK8 assay; type: tissue-based
[25] = test system: Ca9-22; assay: Growth inhibition of human Ca9-22 cells at 0.1 uM incubated for 24 hrs by CCK8 assay; type: functional; settings: read-out: GI
[26] = test system: Bone marrow cell; assay: Growth inhibition of human Bone marrow cell incubated for 24 hrs by CCK8 assay; type: cell-based

SMILES	-TdeltaS [1] [kcal/mol]	-TdeltaS [2] [kcal/mol]	Activity [3]	deltaH [4] [kcal/mol]	deltaH [5] [kcal/mol]	Ka [6] [M⁻¹]	inhibition [7]	deltaG [8] [kcal/mol]	deltaG [9] [kcal/mol]	Activity [10]	deltaH [11] [kcal/mol]	deltaH [12] [kcal/mol]	Ka [13] [M⁻¹]	Ka [14] [M⁻¹]	-TdeltaS [15] [kcal/mol]	Ka [16] [M⁻¹]	deltaG [17] [kcal/mol]	Activity [18]	ΔTm [19] [°C]	deltaG [20] [kcal/mol]	further results
CN1CCCNC(=O)CCCC(=O)NCCCN(C)CCCN2C(=O)c3ccc4c5c(ccc(c35)C2=O)C(=O)N(CCC1)C4=O	-0.4	14	Active	-22	-20	1.9e+06	Active	-8.1	-8.9	Active	-8.5	-11	1.1e+06	3.4e+06	12	1.6e+06	-8.6	Active	10	-8.5	-TdeltaS [21]: 2.9 kcal/mol
CN1CCCNC(=O)c2cccc(c2)C(=O)NCCCN(C)CCCN2C(=O)c3ccc4c5c(ccc(c35)C2=O)C(=O)N(CCC1)C4=O	0.36	27	Active	-35	-53	700000	Active	-8.7	-8.6	Active	-9	-10	2.4e+06	2.2e+06	45	800000	-8	Active	10	-8	-TdeltaS [21]: 1.3 kcal/mol
CN1CCCNC(=O)CC2(CCCCC2)CC(=O)NCCCN(C)CCCN2C(=O)c3ccc4c5c(ccc(c35)C2=O)C(=O)N(CCC1)C4=O	4.4	35	Active	-43	-20	600000	Active	-9.3	-8.6	Active	-13	-14	6.2e+06	1.5e+06	12	700000	-7.9	Active	10	-8	Activity [22]: Non-Toxic; inhibition at 24 h, 0.1 µM [23]: 40%; Activity [24]: Non-Toxic; inhibition of growth at 0.1 µM [25]: > 70%; Activity [26]: Non-Toxic; -TdeltaS [21]: 4.7 kcal/mol
CN1CCCNC(=O)CC(C)(C)CC(=O)NCCCN(C)CCCN2C(=O)c3ccc4c5c(ccc(c35)C2=O)C(=O)N(CCC1)C4=O	2.5	21	Active	-29	-48	700000	Active	-8.7	-8.5	Active	-11	-11	2.6e+06	1.7e+06	41	400000	-8	Active	10	-7.6	-TdeltaS [21]: 2.3 kcal/mol
